Laboratory results: US4748122A, “2,5-diketo-D-gluconic acid reductase” (Shionogi & Co., Ltd., priority 1983, dated 1988)

Key:
[1] = system: 25DKG-Rase derived from Strain T-13; experiment: Enzymatic activity of 25DKG-Rase obtained from T-13 (Example 2); type: biochemical, Corynebacterium sp. No. T-13 (ATCC 31,089); conditions: for Enzymatic activity (relative activity): 100 = activity at pH 7, 30° C.
Method: (§1) Two point nine (2.9) ml of 0.1M TB (pH 7) containing 0.3 μmoles of NADPH was placed in a quartz cubette having 1 cm optical length difference and added 1-5 μl of the enzyme solution obtained above (3) thereto. Then, to the mixture, each 0.1 ml of the various substrate solutions (0.1M) were added while being kept at 30° C. Reactivities of the enzyme on the respective substrates were determined, by means of successive measurement of the decrease in absorption at 340 nm, on the basis of the decrease for 1 minute.
(§2) The measurements of the physico-chemical properties were conducted in a manner as described in Example 1-(4) (5).
(§3) Enzymatic activities of 25DKG-Rases obtained from K-106 and T-13 were measured at varying pH from 4 to 9 (substrate: Ca-25DKG, reaction temperature: 30° C.).
(§4) The enzymatic activities of 25DKG-Rases obtained from K-106 and T-13 were measured at varying temperature (pH 7.0, substrate: Ca-25DKG).

[2] = system: 25DKG-Rase derived from Strain T-13; experiment: Substrate specificity by product formation, enzyme from T-13; type: biochemical, Corynebacterium sp. No. T-13 (ATCC 31,089)
Method: (§5) The purified enzyme solution (10 μl) obtained above (3) was mixed with 25 μmoles of a substrate (Ca-25DKG or 5KF) and 3.0 ml of 0.01M TB (pH 7) containing 15 μmoles of NADPH and the mixture was allowed to react at 30° C. for 60 minutes. After the reaction, the reaction mixture was analyzed by paper chromatography (developing solvent; phenol:formic acid:water=75:4:25, chromogenic agent; AHF solution, prepared by dissolving 0.93 g of anilin and 1.66 g of phthalic acid in 100 ml of water-saturated n-butanol and heating at 105° C. for 2 minutes) and by gas chromatography (column; SE-52, carrier gas: Helium, sample; trimethylsilylated derivative). […] In Table 1, the results of quantitative determination of the products by gas chromatography are shown.
as §2

[3] = system: 25DKG-Rase derived from Strain T-13; experiment: Enzymatic activity of 25DKG-Rase obtained from T-13 (Example 2); type: biochemical, Corynebacterium sp. No. T-13 (ATCC 31,089); conditions: enzyme from T-13, coenzyme NADH
[4] = system: 25DKG-Rase derived from Strain K-106; experiment: Enzymatic activity of 25DKG-Rase obtained from K-106 (Example 2); type: biochemical, Corynebacterium sp. No. K-106 (ATCC 31,088); conditions: for Enzymatic activity (relative activity): 100 = activity at pH 7, 30° C.
Method: as §1, §2, §3, §4

[5] = system: 25DKG-Rase derived from Strain K-106; experiment: Substrate specificity by product formation, enzyme from K-106; type: biochemical, Corynebacterium sp. No. K-106 (ATCC 31,088)
Method: as §5, §2

[6] = target: T1, 25DKG-Rase (Corynebacterium sp., UniProt P15339); type: biochemical, Corynebacterium sp. No. 20A-77 mutant (FERM-BP 108); conditions: 10 μl enzyme solution, 25 μmoles substrate, 15 μmoles NADPH, 30° C., 60 minutes; gas chromatography
T1 construct: The enzyme is an intracellular enzyme extracted from the cells of the 2KLG producing strain; made in house; host or cells: natural producer Corynebacterium sp; No. 20A-77 mutant FERM-BP 108, enzyme purified from sonicated cells; not recombinant
T1 sequence (P15339 2-277 limits assumed): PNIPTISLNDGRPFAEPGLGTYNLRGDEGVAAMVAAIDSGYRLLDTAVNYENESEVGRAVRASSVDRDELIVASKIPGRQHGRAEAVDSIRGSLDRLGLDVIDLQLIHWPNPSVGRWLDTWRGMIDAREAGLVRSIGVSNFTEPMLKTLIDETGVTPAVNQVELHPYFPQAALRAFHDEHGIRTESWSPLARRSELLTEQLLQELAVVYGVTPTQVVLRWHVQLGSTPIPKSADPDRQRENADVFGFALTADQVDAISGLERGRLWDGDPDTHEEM

[7] = target: T1, 25DKG-Rase; experiment: Spectrophotometric enzymatic activity (decrease in absorption at 340 nm), purified enzyme solution of Example 1; type: biochemical, Corynebacterium sp. No. 20A-77 mutant (FERM-BP 108); conditions: for Enzymatic activity: per 1 ml purified enzyme solution
[8] = system: 25DKG-Rase derived from Strain K-106; experiment: Enzymatic activity of 25DKG-Rase obtained from K-106 (Example 2); type: biochemical, Corynebacterium sp. No. K-106 (ATCC 31,088); conditions: enzyme from K-106, coenzyme NADH

O=C(O)C(=O)[C@@H](O)[C@H](O)C(=O)CO [Ca-25DKG]
Enzymatic activity (relative activity) ([1]; T-13, 22 °C., pH 7.0): 64 | Enzymatic activity (relative activity) ([1]; T-13, 25 °C., pH 7.0): 79 | Enzymatic activity (relative activity) ([1]; T-13, 28 °C., pH 7.0): 92 | Enzymatic activity (relative activity) ([1]; T-13, 30 °C., pH 7.0): 100 | Enzymatic activity (relative activity) ([1]; T-13, 35 °C., pH 7.0): 115 | Enzymatic activity (relative activity) ([1]; T-13, 40 °C., pH 7.0): 133 | Enzymatic activity (relative activity) ([1]; T-13, 45 °C., pH 7.0): 128 | Enzymatic activity (relative activity) ([1]; T-13, 50 °C., pH 7.0): 92 | Enzymatic activity (relative activity) ([1]; T-13, pH 4.0, 30° C.): 1 | Enzymatic activity (relative activity) ([1]; T-13, pH 5.0, 30° C.): 65 | Enzymatic activity (relative activity) ([1]; T-13, pH 6.0, 30° C.): 104 | Enzymatic activity (relative activity) ([1]; T-13, pH 7.0, 30° C.): 100 | Enzymatic activity (relative activity) ([1]; T-13, pH 8.0, 30° C.): 64 | Enzymatic activity (relative activity) ([1]; T-13, pH 9.0, 30° C.): 19 | Enzymatic activity per protein ([1]; enzyme from Strain T-13, NADPH): 89 units/mg protein | Enzymatic activity ([1]; enzyme from Strain T-13, purified enzyme solution, NADPH): 15.1 units/ml | product formed (substrate specificity) [2]: produced only Ca-2KLG | enzymatic activity using NADH as the coenzyme [3]: ≤ 0.1 unit/ml | Enzymatic activity (relative activity) ([4]; K-106, 22 °C., pH 7.0): 46 | Enzymatic activity (relative activity) ([4]; K-106, 25 °C., pH 7.0): 69 | Enzymatic activity (relative activity) ([4]; K-106, 28 °C., pH 7.0): 86 | Enzymatic activity (relative activity) ([4]; K-106, 30 °C., pH 7.0): 100 | Enzymatic activity (relative activity) ([4]; K-106, 35 °C., pH 7.0): 115 | Enzymatic activity (relative activity) ([4]; K-106, 40 °C., pH 7.0): 119 | Enzymatic activity (relative activity) ([4]; K-106, 45 °C., pH 7.0): 93 | Enzymatic activity (relative activity) ([4]; K-106, 50 °C., pH 7.0): 44 | Enzymatic activity (relative activity) ([4]; K-106, pH 4.0, 30° C.): 1 | Enzymatic activity (relative activity) ([4]; K-106, pH 5.0, 30° C.): 48 | Enzymatic activity (relative activity) ([4]; K-106, pH 6.0, 30° C.): 103 | Enzymatic activity (relative activity) ([4]; K-106, pH 7.0, 30° C.): 100 | Enzymatic activity (relative activity) ([4]; K-106, pH 8.0, 30° C.): 70 | Enzymatic activity (relative activity) ([4]; K-106, pH 9.0, 30° C.): 6 | Enzymatic activity per protein ([4]; enzyme from Strain K-106, NADPH): 95 units/mg protein | Enzymatic activity ([4]; enzyme from Strain K-106, purified enzyme solution, NADPH): 23.8 units/ml | product formed (substrate specificity) [5]: produced only Ca-2KLG | Concentration of the product [6]: 845 µg/mL | Enzymatic activity ([7]; 15 °C., pH 7): 14 unit/ml | Enzymatic activity ([7]; 25 °C., pH 7): 29 unit/ml | Enzymatic activity ([7]; 27.5 °C., pH 7): 44 unit/ml | Enzymatic activity ([7]; 30 °C., pH 7): 54 unit/ml | Enzymatic activity ([7]; 32.5 °C., pH 7): 59 unit/ml | Enzymatic activity ([7]; 35 °C., pH 7): 64 unit/ml | Enzymatic activity ([7]; 40 °C., pH 7): 67 unit/ml | Enzymatic activity ([7]; 45 °C., pH 7): 44 unit/ml | Enzymatic activity ([7]; 50 °C., pH 7): 10 unit/ml | Activity of the purified enzyme solution (1 ml) ([7]; NADPH, 0.1M TB pH 7, 30° C.): 54 units | Enzymatic activity ([7]; pH 4.0, 3,3-dimethylglutaric acid buffer): 1 unit/ml | Enzymatic activity ([7]; pH 5.0, 3,3-dimethylglutaric acid buffer): 22 unit/ml | Enzymatic activity ([7]; pH 6.0, Good (PIPES) buffer): 59 unit/ml | Enzymatic activity ([7]; pH 6.5, Good (PIPES) buffer): 57 unit/ml | Enzymatic activity ([7]; pH 7.0, Good (PIPES) buffer): 53 unit/ml | Enzymatic activity ([7]; pH 7.0, Tris buffer): 54 unit/ml | Enzymatic activity ([7]; pH 7.5, Tris buffer): 44 unit/ml | Enzymatic activity ([7]; pH 8.0, Tris buffer): 32 unit/ml | Enzymatic activity ([7]; pH 8.5, Tris buffer): 11 unit/ml | Enzymatic activity ([7]; pH 9.0, Tris buffer): 7 unit/ml | enzymatic activity using NADH as the coenzyme [8]: ≤ 0.1 unit/ml
